Where two headings read alike, the source gives them in different places.

15 molecules from patent publication US12139492B2 (Endotarget Inc., priority 2021, dated 2024) can be followed below.

Test [1] has as its target BTK (Homo sapiens, UniProt Q06187). Briefly: Degradation of BTK protein in Namalwa cells (Western blot; DC50, Dmax). The note with it: for DC50: cell line not given; for degradation of BTK protein: Namalwa B lymphocyte cells, various concentrations, 24 hours, Western blot. In general terms: A western blot detects proteins with antibodies after separation by electrophoresis.

Test [2] deals with JeKo-1 cells. Briefly: Antiproliferative effect, MTS cell viability assay, JeKo-1 cells. Type of test: cell-based. The note with it: Homo sapiens; JeKo-1 mantle cell lymphoma cells; read-out: IC50 (anti-proliferation) JeKO-1 cells. The method in brief: (§1)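 Tested at six concentrations (0 to 10 μM in tenfold steps), 72 h; viability by MTS, A490.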
A general note: Formazan colour is commonly taken as a measure of viable cells.

For test [3], the system named is Mino cells. Briefly: Antiproliferative effect, MTS cell viability assay, Mino cells. Type of test: cell-based. The following applies: Homo sapiens, Mino mantle cell lymphoma cells, read-out: IC50 (anti-proliferation) Mino cells. The procedure, abridged:
as §1

Setting [4] is: read-out: DC50 (BTK degradation), concentration giving 50% reduction of BTK expression level.
The mark [5] stands for this setting: read-out: Dmax (BTK degradation).

Sequence of BTK (Q06187 whole entry): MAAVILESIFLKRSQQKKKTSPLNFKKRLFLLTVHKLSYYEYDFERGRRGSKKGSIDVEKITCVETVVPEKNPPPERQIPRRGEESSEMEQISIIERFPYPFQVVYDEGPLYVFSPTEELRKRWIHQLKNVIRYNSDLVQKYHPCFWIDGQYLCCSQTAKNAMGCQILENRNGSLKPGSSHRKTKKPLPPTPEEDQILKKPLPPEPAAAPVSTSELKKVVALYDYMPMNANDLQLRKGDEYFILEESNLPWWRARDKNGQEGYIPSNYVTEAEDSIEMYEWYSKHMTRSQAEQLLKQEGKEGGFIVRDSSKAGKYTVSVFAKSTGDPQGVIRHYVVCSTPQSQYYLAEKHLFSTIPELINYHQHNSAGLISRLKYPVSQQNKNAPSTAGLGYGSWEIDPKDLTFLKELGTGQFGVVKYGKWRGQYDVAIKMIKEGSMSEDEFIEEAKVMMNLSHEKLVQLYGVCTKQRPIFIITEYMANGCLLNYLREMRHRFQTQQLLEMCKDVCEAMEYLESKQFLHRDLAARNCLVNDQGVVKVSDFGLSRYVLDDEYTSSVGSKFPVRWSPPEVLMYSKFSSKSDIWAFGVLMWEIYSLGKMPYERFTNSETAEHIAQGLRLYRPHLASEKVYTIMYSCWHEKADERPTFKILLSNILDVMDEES

As usually defined, the Dmax is the largest share of the target that was removed. One may read the DC50 as the midpoint of the concentration-degradation curve. `Nc1ncnc2c1c(-c1ccc(Oc3ccccc3)cc1)nn2C1CCN(CC2CCN(CC3CCN(c4ccc5c(c4)CN(C4CCC(=O)NC4=O)C5=O)CC3)CC2)CC1` (stereo not drawn) [Compound 200, 3-(5-(4-((4-((4-(4-amino-3-(4-phenoxyphenyl)-1H-pyrazolo(3,4-d)pyrimidin-1-yl)piperidin-1-yl)methyl)piperidin-1-yl)methyl)piperidin-1-yl)-1-oxoisoindolin-2-yl)piperidine-2,6-dione]: in test [1], the Dmax was under 50% and the “degradation of BTK protein” value is listed as “dose-dependent degradation”. This molecule also yielded a 50% degradation concentration (DC50) in test [1] (BTK degradation) of over 0.05 µM. Moreover, the IC50 in test [2] was in the range of 1 to 10 µM. Also, in test [3], the IC50 lay in the range of 1 to 10 µM.

For the molecule `Nc1ncnc2c1c(-c1ccc(Oc3ccccc3)cc1)nn2C1CCC(CN2CC(N3CCN(c4ccc5c(c4)CN(C4CCC(=O)NC4=O)C5=O)CC3)C2)CC1` (stereo not drawn) [Compound 533, 3-(5-(4-(1-((4-(4-amino-3-(4-phenoxyphenyl)-1H-pyrazolo[3,4-d]pyrimidin-1-yl)cyclohexyl)methyl)azetidin-3-yl)piperazin-1-yl)-1-oxoisoindolin-2-yl)piperidine-2,6-dione], the 50% degradation concentration (DC50) in test [1] (setting [4]) was under 0.01 µM. The Dmax in test [1] (setting [5]) was over 90%. The IC50 in test [2] and in test [3] (MINO) was under 1 µM each time.

In the case of `Nc1ncnc2c1c(-c1ccc(Oc3ccccc3)cc1)nn2C1CCN(C(=O)C2CC(N3CCN(c4ccc5c(c4)C(=O)N(C4CCC(=O)NC4=O)C5=O)CC3)C2)CC1` (stereo not drawn) [Compound 507, 5-(4-(3-(4-(4-amino-3-(4-phenoxyphenyl)-1H-pyrazolo[3,4-d]pyrimidin-1-yl)piperidine-1-carbonyl)cyclobutyl)piperazin-1-yl)-2-(2,6-dioxopiperidin-3-yl)isoindoline-1,3-dione], the half-maximal degradation concentration (DC50) in test [1] (setting [4]) was under 0.01 µM. For the same molecule, in test [1] (setting [5]), the Dmax was over 90%. Besides, the IC50 in test [2] and in test [3] (MINO) was under 1 µM in each case.

Take `Nc1ncnc2c1c(-c1ccc(Oc3ccccc3)cc1)nn2C1CCN(C2CCN(C(=O)N3CCN(CCC4CCN(c5ccc6c(c5)CN(C5CCC(=O)NC5=O)C6=O)CC4)CC3)CC2)CC1` (stereo not drawn) [Compound 248]: the Dmax in test [1] was over 75%. For the same molecule, in test [1] (BTK degradation), the DC50 was 0.01 to 0.05 µM. For the same molecule, the IC50 in test [2] was 1 to 10 µM; in test [3] (MINO), under 1 µM.

With `Nc1ncnc2c1c(-c1ccc(Oc3ccccc3)cc1)nn2C1CCN(CCCN2CCC(CN3CCN(c4ccc(NC5CCC(=O)NC5=O)cc4)CC3)C2)CC1` (stereo not drawn) [Compound 565, 3-((4-(4-((1-(3-(4-(4-amino-3-(4-phenoxyphenyl)-1H-pyrazolo[3,4-d]pyrimidin-1-yl)piperidin-1-yl)propyl)pyrrolidin-3-yl)methyl)piperazin-1-yl)phenyl)amino)piperidine-2,6-dione], in test [1] (setting [4]), the DC50 is 0.01 to 0.05 µM. For the same molecule, in test [1] (setting [5]), the Dmax was over 75%. In addition, the IC50 in test [2] and in test [3] (MINO) was under 1 µM throughout.

Regarding `Nc1ncnc2c1c(-c1ccc(Oc3ccccc3)cc1)nn2C1CCN(C2CCN(CC3CN(c4ccc5c(c4)CN(C4CCC(=O)NC4=O)C5=O)C3)C2)CC1` (stereo not drawn) [Compound 426, 3-(5-(3-((3-(4-(4-amino-3-(4-phenoxyphenyl)-1H-pyrazolo[3,4-d]pyrimidin-1-yl)piperidin-1-yl)pyrrolidin-1-yl)methyl)azetidin-1-yl)-1-oxoisoindolin-2-yl)piperidine-2,6-dione], in test [1] (setting [4]), the DC50 was 0.01 to 0.05 µM. Further, the greatest degradation seen (Dmax) in test [1] (setting [5]) was over 90%. Also, the IC50 in test [2] and in test [3] (MINO) was under 1 µM throughout.

For the molecule `NC(=O)c1c(-c2ccc(Oc3ccccc3)cc2)nn2c1NCCC2C1CCN(C(=O)N2CCC(CC3CCN(c4ccc5c(c4)CN(C4CCC(=O)NC4=O)C5=O)CC3)CC2)CC1` (stereo not drawn) [Compound 278, 7-(1-(4-((1-(2-(2,6-dioxopiperidin-3-yl)-1-oxoisoindolin-5-yl)piperidin-4-yl)methyl)piperidine-1-carbonyl)piperidin-4-yl)-2-(4-phenoxyphenyl)-4,5,6,7-tetrahydropyrazolo[1,5-a]pyrimidine-3-carboxamide], in test [1], the Dmax is over 90%. Also, the half-maximal degradation concentration (DC50) in test [1] (BTK degradation) is under 0.01 µM. Also, the IC50 in test [2] is 1 to 10 µM; in test [3] (MINO) it was under 1 µM.

Turning to `NC(=O)c1c(-c2ccc(Oc3ccccc3)cc2)nn2c1NCCC2C1CCN(C2CCN(C(=O)N3CCC(N4CCN(c5ccc6c(c5)C(=O)N(C5CCC(=O)NC5=O)C6=O)CC4)CC3)CC2)CC1` (stereo not drawn) [Compound 341, 7-(1′-(4-(4-(2-(2,6-dioxopiperidin-3-yl)-1,3-dioxoisoindolin-5-yl)piperazin-1-yl)piperidine-1-carbonyl)-[1,4′-bipiperidin]-4-yl)-2-(4-phenoxyphenyl)-4,5,6,7-tetrahydropyrazolo[1,5-a]pyrimidine-3-carboxamide], the Dmax in test [1] was over 90%. In test [1] (BTK degradation), this molecule displayed a 50% degradation concentration (DC50) of 0.01 to 0.05 µM. Moreover, the results for the IC50 in test [2] and in test [3] (MINO) were under 1 µM and 1 to 10 µM, respectively.

In turn, `Nc1ncnc2c1c(-c1ccc(Oc3ccccc3)cc1)nn2C1CCN(C2CCN(C(=O)N3CCC(CCN4CCN(c5ccc6c(c5)CN(C5CCC(=O)NC5=O)C6=O)CC4)CC3)CC2)CC1` (stereo not drawn) [Compound 252, 3-(5-(4-(2-(1-(4-(4-amino-3-(4-phenoxyphenyl)-1H-pyrazolo[3,4-d]pyrimidin-1-yl)-[1,4′-bipiperidine]-1′-carbonyl)piperidin-4-yl)ethyl)piperazin-1-yl)-1-oxoisoindolin-2-yl)piperidine-2,6-dione] yielded a Dmax in test [1] of over 90%. Further, the DC50 in test [1] (BTK degradation) was 0.01 to 0.05 µM. In addition, the IC50 in test [2] and in test [3] (MINO) was under 1 µM throughout.

`Nc1ncnc2c1c(-c1ccc(Oc3ccccc3)cc1)nn2C1CCN(CC2CCN(/C=C\C(=O)CN3CCN(c4ccc5c(c4)CN(C4CCC(=O)NC4=O)C5=O)CC3)CC2)CC1` (stereo not drawn) [Compound 421, (Z)-3-(5-(4-(4-(4-((4-(4-amino-3-(4-phenoxyphenyl)-1H-pyrazolo[3,4-d]pyrimidin-1-yl)piperidin-1-yl)methyl)piperidin-1-yl)-2-oxobut-3-en-1-yl)piperazin-1-yl)-1-oxoisoindolin-2-yl)piperidine-2,6-dione]: in test [1], the “degradation of BTK protein” value is “dose-dependent degradation”. In test [1] (setting [4]), the DC50 is under 0.01 µM. Further, the maximal degradation (Dmax) in test [1] (setting [5]) was over 90%. In addition, the IC50 in test [2] and in test [3] (MINO) was 1 to 10 µM each time.

Take `Nc1ncnc2c1c(-c1ccc(Oc3ccccc3)cc1)nn2C1CCN(CCN2CCC(CN3CCN(c4ccc(NC5CCC(=O)NC5=O)cc4)CC3)C2)CC1` (stereo not drawn) [Compound 563, 3-((4-(4-((1-(2-(4-(4-amino-3-(4-phenoxyphenyl)-1H-pyrazolo[3,4-d]pyrimidin-1-yl)piperidin-1-yl)ethyl)pyrrolidin-3-yl)methyl)piperazin-1-yl)phenyl)amino)piperidine-2,6-dione]: the DC50 in test [1] (setting [4]) fell in the range of 0.01 to 0.05 µM. In test [1] (setting [5]), the Dmax was over 90%. Further, the IC50 in test [2] and in test [3] (MINO) was 1 to 10 µM each time.

As for `Nc1ncnc2c1c(-c1ccc(Oc3ccccc3)cc1)nn2C1CCN(C2CCN(CCCN3CCN(c4ccc5c(c4)C(=O)N(C4CCC(=O)NC4=O)C5=O)CC3)CC2)CC1` (stereo not drawn) [Compound 221, 5-(4-(3-(4-(4-amino-3-(4-phenoxyphenyl)-1H-pyrazolo[3,4-d]pyrimidin-1-yl)-[1,4′-bipiperidin]-1′-yl)propyl)piperazin-1-yl)-2-(2,6-dioxopiperidin-3-yl)isoindoline-1,3-dione], the Dmax in test [1] was over 75%. The DC50 in test [1] (BTK degradation) fell in the range of 0.01 to 0.05 µM. Besides, the IC50 in test [2] is 1 to 10 µM; in test [3] (MINO), over 10 µM.

Regarding `Nc1ncnc2c1c(-c1ccc(Oc3ccccc3)cc1)nn2C1CCN(C2CCN(CC3CCN(c4ccc5c(c4)C(=O)N(C4CCC(=O)NC4=O)C5=O)C3)C2)CC1` (stereo not drawn) [Compound 451, 5-(3-((3-(4-(4-amino-3-(4-phenoxyphenyl)-1H-pyrazolo[3,4-d]pyrimidin-1-yl)piperidin-1-yl)pyrrolidin-1-yl)methyl)pyrrolidin-1-yl)-2-(2,6-dioxopiperidin-3-yl)isoindoline-1,3-dione], in test [1], the “degradation of BTK protein” value is “dose-dependent degradation”. In test [1] (setting [4]), the DC50 is under 0.01 µM. The greatest degradation seen (Dmax) in test [1] (setting [5]) is over 90%. Further, the IC50 in test [2] is 1 to 10 µM; in test [3] (MINO), under 1 µM.

For `NC(=O)c1c(-c2ccc(Oc3ccccc3)cc2)nn2c1NCC[C@H]2C1CCN(C2CCN(C(=O)N3CCC(CC4CCN(c5ccc6c(c5)CN(C5CCC(=O)NC5=O)C6=O)CC4)CC3)CC2)CC1` (stereo partly drawn) [Compound 394, (7S)-7-(1′-(4-((1-(2-(2,6-dioxopiperidin-3-yl)-1-oxoisoindolin-5-yl)piperidin-4-yl)methyl)piperidine-1-carbonyl)-[1,4′-bipiperidin]-4-yl)-2-(4-phenoxyphenyl)-4,5,6,7-tetrahydropyrazolo[1,5-a]pyrimidine-3-carboxamide], the DC50 in test [1] (setting [4]) was 0.01 to 0.05 µM. For the same molecule, the maximal degradation (Dmax) in test [1] (setting [5]) was over 75%. The IC50 in test [2] was 1 to 10 µM; in test [3] (MINO) it was under 1 µM.

In turn, `NC(=O)c1c(-c2ccc(Oc3ccccc3)cc2)nn2c1NCCC2C1CCN(C2CCN(CC3CCN(c4ccc5c(c4)C(=O)N(C4CCC(=O)NC4=O)C5=O)CC3)CC2)CC1` (stereo not drawn) [Compound 305, 7-(1′-((1-(2-(2,6-dioxopiperidin-3-yl)-1,3-dioxoisoindolin-5-yl)piperidin-4-yl)methyl)-[1,4′-bipiperidin]-4-yl)-2-(4-phenoxyphenyl)-4,5,6,7-tetrahydropyrazolo[1,5-a]pyrimidine-3-carboxamide] had a Dmax in test [1] of over 90%. The DC50 in test [1] (BTK degradation) lay within 0.01 to 0.05 µM. The IC50 in test [2] and in test [3] (MINO) was 1 to 10 µM throughout.
